Experimental findings from US11021628B2, “Coating composition containing methyl cellulose, method for producing the same, and solid preparation” (Shin-Etsu Chemical Co., Ltd., priority 2016, dated 2021) are described below.

The nature of the data set: Dissolution Test, Paddle method, Japanese Pharmacopoeia Sixteenth Edition. It is filed as physicochemical. The following applies: acetaminophen, water, paddle 100 rpm. As to the method: The coated granules was subjected to the dissolution test in accordance with Dissolution Test, Paddle method in the Japanese Pharmacopoeia Sixteenth Edition at a paddle rotation rate of 100 rpm with water as the test liquid, and the drug concentration was quantitatively determined at a measurement wavelength of 244 nm by using an ultraviolet spectrophotometer (UV-1700, manufactured by Shimadzu Corporation).
As Reference Example 1, the dissolution rates of an acetaminophen powder after 1 minute and 10 minutes are also shown in Table 3.

Take `CC(=O)Nc1ccc(O)cc1` [Ref. Ex. 1, acetaminophen]: the “dissolution ratio after 1 minute” value (1 minute) is 48.0%. Under “10 minutes”, the “dissolution ratio after 10 minutes” value came to 99.6%.
